Columns and labels:
Male NMRI mice = assay: Ro-4-1284 antagonism in mice (drug induced neurological effects); type: in vivo; details: for activity on observations in Ro-4-1284 antagonism test: 80 mg/kg, oral administration, 3 animals; for drug induced neurological side effects: Ro-4-1284 antagonism in mice
Protocol: The test is a modification of a procedure described by Colpaert et al. (1975).^3 Male NMRI mice (22±3 g) were housed in macrolon observation cages (L×W×H: 11×12×17 cm; n=3 per cage). At the start of the experiments immediately before test compound administration, the initial body temperature of the mice was measured with a precision of 0.1° C. by inserting the thermo-sensitive probe (1.0 mm diameter) of an electric thermometer (Comark) to a constant depth of 3 cm into the esophagus until a stable reading was obtained. The right eye pupil diameter was measured with a graduated microscope and expressed in 1/24 mm units. Fifteen min after test compound administration, the mice were challenged with Ro-4-1284 (10 mg/kg, s.c.). Ro-4-1284 is a reserpine-like vesicular monoamine transport (VMAT-2) inhibitor, which rapidly depletes secretory vesicles.^3,4 Fifteen, 30 and 60 min after challenge, the mice were scored for palpebral opening (0, 1, 2, 3, 4, 5) and locomotor activity (−1, 0, 1, 2, 3). At the 60-min interval, immediately after the scoring of overt behavior, the right eye pupil diameter and the esophageal temperature were measured again. Abnormal phenomena such as intensive sniffing, chewing, rearing, hyperemia, piloerection, salivation, tremors, convulsions and death were noted (the latter phenomena were also noted when occurring before Ro-4-1284 administration). Criteria for drug-induced effects: reversal of ptosis: palpebral opening score >1 at 15, 30 or 60 min (2.7, 0.5 and 0% false positive controls, respectively; n>350); induction of prostration: score −1 for locomotion at 15, 30 or 60 min (never observed in controls); reversal of hypomotility: score >0 for locomotion at 15, 30 and 60 min (2.2, 0.8 and 0% false positive controls, respectively); reversal of miosis: pupil diameter >5 units at 60 min (0.8% false positives); potentiation of hypothermia: temperature decrease (over the 1-h time interval)>9.0° C. (1.4% false positives); reversal of hypothermia: temperature decrease <3.0° C. (1.8% false positives).
According to the standard procedure, R0-4-1284 is injected 15 min following subcutaneous or oral administration and observations start 15 min later. Doses are initially given to 3 animals. When at least 2 out of the 3 animals show activity for at least one of the observations, the compound is considered active.

p53 in A2780 cells = assay: p53 ELISA in A2780 cells (capacity to preserve p53); type: cell-based; details: lowest dose giving at least 140% of the p53 value of the control, 16 hours
Protocol: The capacity of the compounds to preserve p53 in A2780 cells was measured with the p53 enzyme linked immunosorbent assay. The p53 assay is a “sandwich” enzyme immunoassay employing two polyclonal antibodies. A polyclonal antibody, specific for the p53 protein, has been immobilized onto the surface of the plastic wells. Any p53 present in the sample to be assayed will bind to the capture antibody. The biotinylated detector polyclonal antibody also recognizes p53 protein, and will bind to any p53, which has been retained by the capture antibody. The detector antibody, in turn, is bond by horseradish peroxidase-conjugated streptavidin. The horseradish peroxidase catalyses the conversion of the chromogenic substrate o-phenylene diamine, the intensity of which is proportional to the amount of p53 protein bond to the plate. The colored reaction product is quantified using a spectrophotometer. Quantitation is achieved by the construction of a standard curve using known concentrations of purified recombinant HIS tagged p53 protein (see example C.1.).
A2780 cells (ATCC) were cultivated in RPMI 1640 supplemented with 10% fetal calf serum (FCS), 2 mM L-glutamine and gentamycin at 37° C. in a humidified incubator with 5% CO2.
A2780 cells were seeded at 20.000 cells per well in a 96 well plate, cultured for 24 hours and treated with compound for 16 hours at 37° C. in a humidified incubator. After incubation, the cells were washed once with phosphate-buffered saline and 30 μl, per well, low salt RIPA buffer (20 mM tris, pH7.0, 0.5 mM EDTA, 1% Nonidet P40, 0.5% DOC, 0.05% SDS, 1 mM PMSF, 1 μg/ml aprotinin and 0.5 μ/ml leupeptin) was added. Plates were placed on ice for 30 minutes to complete the lysis. p53 protein was detected in de lysates by using the sandwich ELISA, described below.
High binding polystyrene EIA/RIA 96 well plates (Costar 9018) were coated with the capture antibody pAb1801 (Abcam ab28-100) at a concentration of 1 μg/ml in coating buffer (0.1 M NaHCO3 pH8.2), 50 μl per well. The antibody was allowed to adhere overnight at 4° C. Coated plates were washed once with phosphate-buffered saline (PBS)/0.05% Tween 20 and 300 μl of blocking buffer (PBS, 1% bovine serum albumins (BSA)) was added, for an incubation period of 2 hours at room temperature. Dilutions of purified recombinant HIS tagged p53 protein, ranging from 3-200 ng/ml, were made in blocking buffer and used as standards.
Plates were washed twice with PBS/0.05% Tween 20 and blocking buffer or standards were added at 80 μl/well. To the standards, 20 μl of lysis buffer was added. The samples were added to the other wells at 20 μl lysate/well. After an overnight incubation at 4° C., plates were washed twice with PBS/0.05% Tween 20. Aliquots of 100 μl secondary polyclonal antibody p53(FL-393) (Tebubio, sc-6243) at a concentration of 1 μg/ml in blocking buffer were added to each well and allowed to adhere for 2 hours at room temperature. Plates were washed three times with PBS/0.05% Tween 20. Detection antibody anti-rabbit HRP (sc-2004, Tebubio) at 0.04 μg/ml in PBS/1% BSA was added and incubated for 1 hour at room temperature. Plates were washed three times with PBS/0.05% Tween 20 and 100 μl of substrate buffer was added (substrate buffer was prepared shortly before use by adding 1 tablet of 10 mg o-phenylene diamine (OPD) from Sigma and 125 μl 3% H2O2 to 25 ml OPD buffer: 35 mM citric acid, 66 mM Na2HPO4, pH5.6). After 5 to 10 minutes, colour reaction was stopped by adding 50 μl stop buffer (1 M H2SO4) per well. The absorbance at dual wavelengths of 490/655 nm was measured using a Biorad micro plate reader and the results were then analyzed.
For each experiment, controls (containing no drug) and a blank incubation (containing no cells or drugs) were run in parallel. The blank value was subtracted from all control and sample values. For each sample, the value of p53 (in absorbance units) was expressed as the percentage of the value for p53 present in the control. […]

| Compound | activity on observations in Ro-4-1284 antagonism test (Male NMRI mice) | drug induced neurological side effects (Male NMRI mice) | A2780 p53-elisa LAD (p53 in A2780 cells; listed as drawing 35) | A2780 p53-elisa LAD (p53 in A2780 cells; listed as drawing 36) |
| --- | --- | --- | --- | --- |
| Cc1cc(Nc2ccnc3c2CCC3O)ccc1NCCc1c[nH]c2c(C)cccc12 (single isomer, unassigned) [Compound No. 1] | did not show activity on any observation on any animal | No | 3.00E-08 |  |
| Cc1cc(Nc2ccnc3c2CCC3O)ccc1NCCc1c[nH]c2c(C)cccc12 (single isomer, unassigned) [Compound No. 2] | did not show activity on any observation on any animal | No |  | 1.00E-07 |

Reference: patent US8853406B2, “Substituted phenylenediamines as inhibitors of the interaction between MDM2 and P53” (Janssen Pharmaceutica NV, priority 2007, dated 2014)
